Series [1] deals with differentiated Caco-2 cell monolayer. Description: Caco-2 cell permeability assay (efflux ratio). To be noted: Papp B to A/Papp A to AB. The format is in vitro ADME, human. As for the experimental part:
(§1) The permeability of the test compounds was determined with a Caco-2 cell permeability assay according to Hubatsch I. et al (Nat. Protoc. 2007, 2 (9), 2111-2119).
(§2) The Caco-2 cell line is a continuous cell of heterogeneous human epithelial colorectal adenocarcinoma cells. When cultured as a confluent monolayer on a permeable support such as a cell culture insert filter, the cells differentiate to form a polarized epithelial cell monolayer that provides a physical and biochemical barrier to the passage of ions and small molecules. In form of the confluent monolayer, the Caco-2 cells serve in the pharmaceutical industry as a well established in vitro model of the human small intestinal mucosa to predict the absorption of orally administered drugs. Assessing transport in both directions (apical to basolateral (A-B) and basolateral to apical (B-A)) across the cell monolayer enables an efflux ratio to be determined which provides an indicator as to whether a compound undergoes active efflux. […] As will be appreciated, active efflux substantially compromises oral bioavailability.

Series [2] is described as follows: Caco-2 cell permeability assay (efflux ratio). The format is in vitro ADME, human. As to conditions: human, Caco-2, Papp B to A/Papp A to AB, differentiated Caco-2 cell monolayer; read-out: Caco-2 BA/AB (efflux ratio). As for the experimental part: as §1, §2
A general note: Caco-2 cells form a polarised layer with tight junctions and transporters.

Series [3] is described as follows: metabolic stability assay in rat liver microsomes. As to conditions: for microsomal CLint at 1 μM: pH 7.4, male Wistar rat liver microsomes, 0.5 mg protein/mL, 1 μM test compound, NADPH. The class given is in vitro ADME. As for the experimental part: Hepatic clearance is the most important drug elimination mechanism in the body and many marketed compounds are cleared by hepatic cytochrome P450-mediated metabolism. The excretion or elimination property of the test compounds was determined with a metabolic stability assay according to Obach R S (Drug Metab. Dispos. 1999, 27(11), 1350-1359).
Assays were performed in 96-deepwell-plates using liver microsomes pooled from male Wistar rats (Corning). Rat liver microsomal incubations were conducted in duplicate and incubation mixtures consisted of liver microsomes (0.5 mg microsomal protein/mL), test compound (1 μM), MgCl2 (2 mM), and NADPH (1 mM) in a total volume of 0.7 ml sodium phosphate buffer (100 mM, pH 7.4). Reactions were commenced with the addition of NADPH and shaken on a horizontal shaker with a fitted heating block at 37° C. At t=0 min and the time points: 10 min, 30 min and 60 min; aliquots (70 μL) were removed from the incubations and added to 140 μl termination mixtures. Termination mixtures consisted of acetonitrile supplemented with diazepam, diclofenac and griseofulvin as internal analytical standards. The quenched samples were processed by mixing and centrifugation (2,200×g, 5 minutes). The particle free supernatant was diluted 1+1 with deionised water and subsequently subjected to LC-MS for quantitative bioanalysis in terms of test compound depletion (pump flow rate: 600 μL/min; Kinetex Phenyl-Hexyl analytical column 2.6 μm, 50×2.1 mm (Phenomenex, Germany)). Incubations containing verapamil at a concentration of 1 μM were used as high clearance positive control (PC; n=2), and incubations without NADPH (70 μl phosphate buffer (supplemented with 2 mM MgCl2) instead of 70 μL NADPH solution), in order to verify that any apparent loss of test item in the assay incubation was due to metabolism, were used as negative control (NC; n=2).
Clint data allow to predict the hepatic clearance in vivo, or, in other words, can be used as an indicator for the half life of a compound in vivo and its oral bioavailability. Highly cleared compounds are generally considered to be unfavourable as they are rapidly cleared in vivo resulting in a short duration of action. Said another way, a lower in vitro intrinsic clearance is usually indicative of a longer half life in vivo and of a better oral bioavailability.
On the technique in general: Liver microsomes are a subcellular fraction often used to study metabolism.

In series [4] the target is T1, human bradykinin B2 receptor (hB2R) (Homo sapiens, UniProt P30411).
T1 sequence (P30411 1-391): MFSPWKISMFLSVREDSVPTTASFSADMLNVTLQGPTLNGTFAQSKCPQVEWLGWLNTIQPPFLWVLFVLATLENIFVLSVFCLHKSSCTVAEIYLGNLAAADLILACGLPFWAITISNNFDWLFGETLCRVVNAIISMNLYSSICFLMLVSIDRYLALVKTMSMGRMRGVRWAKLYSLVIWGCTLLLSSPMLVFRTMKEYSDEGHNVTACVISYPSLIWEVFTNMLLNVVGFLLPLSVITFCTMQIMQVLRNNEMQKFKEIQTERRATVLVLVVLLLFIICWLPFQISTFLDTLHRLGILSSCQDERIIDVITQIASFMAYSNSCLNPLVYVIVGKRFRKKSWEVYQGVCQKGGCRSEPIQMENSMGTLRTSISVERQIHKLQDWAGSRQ
Description: cell-based human bradykinin B2 receptor calcium mobilization (hB2R-CaM) assay. As to conditions: for IC50: HTS041C cells, bradykinin at EC80, calcium mobilization, read-out: IC50-value towards human bradykinin B2 receptor (hB2R). An outline of the steps: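 HTS041C cells stably expressing hB2R were serum-reduced, loaded with Calcium 6 dye and pre-incubated with compound (8-point, n=2, 0.1% DMSO) for 25 min at 37° C. Bradykinin was then added at EC80. IC50 came from a 4-parameter logistic fit of the max-min fluorescence signal (485/525 nm).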

From US11820756B2, “Bradykinin B2 receptor antagonists” (Pharvaris Netherlands B.V., priority 2017, dated 2023) come the findings set out here.

A value given as a limit tells only on which side of the number the result lay.

As usually defined, the microsomal CLint is the rate of metabolic loss divided by the concentration. The low end stands for greater metabolic stability, the high end for faster metabolism. For `Cc1cc(-n2cc(F)cn2)c2cccc(OCc3c(Cl)cncc3C(C)NC(=O)[C@@H](C)O)c2n1` (stereo partly shown) [compound 170], in series [1], the “Caco-2 BA/AB (efflux ratio)” value was 2.9. Further, the efflux ratio in series [2] is more than 2. Besides, the intrinsic metabolic clearance (microsomal CLint) at 1 μM in series [3] was 329 µL/min/mg.

As for `Cc1cc(-n2cc(F)cn2)c2cccc(OCc3c(Cl)cncc3C(C)NC(=O)[C@H](C)O)c2n1` (stereo partly shown) [compound 169], the “Caco-2 BA/AB (efflux ratio)” value in series [1] amounted to 3.4. Also, the efflux ratio in series [2] was more than 2. In series [3], this compound came in with a microsomal CLint at 1 μM of 427 µL/min/mg.

What is called IC50 is the concentration needed to halve the response being measured. For the compound `Cc1cc(-c2ncnn2C)c2cccc(OCc3c(Cl)cc(F)cc3[C@H](C)NC(=O)COC(F)F)c2n1` [Compound 6, (S)—N-(1-(3-chloro-5-fluoro-2-((2-methyl-4-(1-methyl-1H-1,2,4-triazol-5-yl)quinolin-8-yloxy)methyl)phenyl)ethyl)-2-(difluoromethoxy)acetamide], the concentration for half-maximal inhibition (IC50) in series [4] was not above 50 nM. Besides, the efflux ratio in series [2] stood at 1. In addition, the “fold lower Clint as compared to Comparative Compound No. 171” value in series [3] (versus Comparative Compound No. 171) was found to be 17.8 fold. The “fold lower Clint as compared to Comparative Compound No. 174” value in series [3] (versus Comparative Compound No. 174) is listed as 4.8 fold.

On to `Cc1cc(-n2cc(F)cn2)c2cccc(OCc3c(Cl)cc(F)cc3[C@H](C)NC(=O)[C@H](C)O)c2n1` [Compound 13], for which the 50% inhibitory concentration (IC50) in series [4] is 251 to 1000 nM. Also, the “fold improvement of relative IC50 as compared to Comparative Compound No. 169” value in series [4] (versus Comparative Compound No. 169) stood at 7.5 fold. For the same compound, the “fold improvement of relative IC50 as compared to Comparative Compound No. 172” value in series [4] (versus Comparative Compound No. 172) worked out at 3.8 fold. In series [2], the efflux ratio came out at 0.6. The intrinsic clearance (microsomal CLint) at 1 μM in series [3] is 13 µL/min/mg.

Regarding `Cc1cc(-c2ncnn2C)c2cccc(OCc3c(Cl)cncc3C(C)NC(=O)COC(F)F)c2n1` (stereo not shown) [compound 171], the “Caco-2 BA/AB (efflux ratio)” value in series [1] is given as 7.7.
